US20210161131A1, “cis-p-Menthane-1,8-Di-secondary Amine Compounds as well as Their Preparation Methods and Application in Weed Control” (RESEARCH INSTITUTE OF FORESTRY NEW TECHNOLOGY, CHINESE …, priority 2019, published 2021)

Tested on: barnyard grass seeds
Assay: Petri dish seed germination method: inhibition of root and stem growth of barnyard grass
Assay type: in vivo
Details: 96 hours incubation
Experimental: (§1) Step 2: Accurately weigh 1 mmol cis-p-menthane-1,8-di-Schiff base compounds and cis-p-menthane-1,8-di-secondary amine compounds respectively, dissolve each of them with 0.25 mL DMF, and add a drop of Tween 80 in each resulted solution. After being fully dissolved, each solution is transferred to a 100 mL volumetric flask respectively and then diluted to the mark with distilled water to obtain a solution with a concentration of 10 mmol/L as the mother liquor. The two-fold dilution method is used to prepare diluted solutions with a series of concentrations (the concentrations of DMF and Tween 80 in the diluted solutions are the same as those in the mother liquor).
(§2) Barnyard grass seeds are placed in a 28° C. incubator and are soaked in an appropriate amount of distilled water for 12 hours there. After the clean water is filtered out, the seeds are then placed in the 28° C. incubator for 24 hours to germinate. Spread 2 pieces of filter paper in each of several Petri dishes, and place 10 barnyard grass seeds with the same size in each dish. Repeat each treatment for three times The dishes are divided into two groups: test dishes and control dishes. Add into each test dish 10 mL of the sample solution with the corresponding concentration of the target compound, and add into each control dish the same amount of the mixture of water, DMF and Tween 80 as the blank control. Add 10 seeds to each of the dishes (both test dishes and control dishes), place them in an artificial climate incubator, and incubate them for 96 hours under a temperature of 28° C., an illumination of 5000 1×, a photoperiod of day:night=16:8 and a relative humidity of 70-80%. The experimental data is processed and analyzed with DPS software to calculate the inhibition rate (y) of cis-p-menthane-1,8-di-secondary amine compounds on the root growth or stem growth of barnyard grass seeds.
Wherein, y is the inhibition rate of root growth or stem growth (%), x0 is the root length or stem length of the control, and x1 is the root length or stem length of the sample.
as §1, with “Accurately” for “Step 2: Accurately”, “cis-p-menthane-1,8-bis-(4-chlorophenyl)Schiff” for “cis-p-menthane-1,8-di-Schiff”, “base” for “base compounds”, “cis-p-menthane-1,8-bis-(4-chlorobenzyl)amine” for “cis-p-menthane-1,8-di-secondary amine compounds”, “(5 mmol/L, 2.5 mmol/L, 1.25 mmol/L, 0.625 mmol/L, 0.3125 mmol/L and 0.1563 mmol/L; the” for “(the”
as §2, with “placed in a 30° C. incubator” for “placed in the 28° C. incubator”, “in each Petri dish,” for “in each of several Petri dishes,”, “each Petri dish, and place” for “several Petri dishes, and place”, “with the above corresponding concentration” for “with the corresponding concentration”, “with DPS software.” for “with DPS software to calculate the inhibition rate (y) of cis-p-menthane-1,8-di-secondary amine compounds on the root growth or stem growth of barnyard grass seeds.”

SMILES: CC1(N=Cc2ccc(C(F)(F)F)cc2)CCC(C(C)(C)N=Cc2ccc(C(F)(F)F)cc2)CC1 (stereo not drawn) [cis-p-menthane-1,8-bis-(4-trifluoromethylbenzyl)Schiff base, reference compound]
- inhibition rate on the stem growth of barnyard grass seeds (0.3125 mmol/L): 20.6%
- inhibition rate on the root growth of barnyard grass seeds (0.625 mmol/L): 0.8%
- inhibition rate on the stem growth of barnyard grass seeds (0.625 mmol/L): 30.9%
- inhibition rate on the root growth of barnyard grass seeds (1.25 mmol/L): 17.5%
- inhibition rate on the stem growth of barnyard grass seeds (1.25 mmol/L): 14.6%
- inhibition rate on the root growth of barnyard grass seeds (2.5 mmol/L): 7.1%
- inhibition rate on the stem growth of barnyard grass seeds (2.5 mmol/L): 19.5%
- inhibition rate on the root growth of barnyard grass seeds (5 mmol/L): 48.4%
- inhibition rate on the stem growth of barnyard grass seeds (5 mmol/L): 31.1%

SMILES: CC1(NCc2ccc(C(F)(F)F)cc2)CCC(C(C)(C)NCc2ccc(C(F)(F)F)cc2)CC1 (stereo not drawn) [cis-p-menthane-1,8-bis-(4-trifluoromethylbenzyl)amine]
- inhibition rate on the root growth of barnyard grass seeds (0.15625 mmol/L): 1.0%
- inhibition rate on the stem growth of barnyard grass seeds (0.15625 mmol/L): 11.6%
- inhibition rate on the root growth of barnyard grass seeds (0.3125 mmol/L): 62.8%
- inhibition rate on the stem growth of barnyard grass seeds (0.3125 mmol/L): 42.2%
- inhibition rate on the root growth of barnyard grass seeds (0.625 mmol/L): 82.3%
- inhibition rate on the stem growth of barnyard grass seeds (0.625 mmol/L): 55.1%
- inhibition rate on the root growth of barnyard grass seeds (1.25 mmol/L): 86.1%
- inhibition rate on the stem growth of barnyard grass seeds (1.25 mmol/L): 67.0%
- inhibition rate on the root growth of barnyard grass seeds (2.5 mmol/L): 100.0%
- inhibition rate on the stem growth of barnyard grass seeds (2.5 mmol/L): 83.4%
- inhibition rate on the root growth of barnyard grass seeds (5 mmol/L): 100.0%
- inhibition rate on the stem growth of barnyard grass seeds (5 mmol/L): 78.5%

SMILES: CC1(NCc2ccc(Br)o2)CCC(C(C)(C)NCc2ccc(Br)o2)CC1 (stereo not drawn) [cis-p-menthane-1,8-bis-(5-bromofuran-2-methyl)amine]
- inhibition rate on the root growth of barnyard grass seeds (0.15625 mmol/L): 42.2%
- inhibition rate on the stem growth of barnyard grass seeds (0.15625 mmol/L): 10.1%
- inhibition rate on the root growth of barnyard grass seeds (0.3125 mmol/L): 39.6%
- inhibition rate on the stem growth of barnyard grass seeds (0.3125 mmol/L): 5.6%
- inhibition rate on the root growth of barnyard grass seeds (0.625 mmol/L): 54.8%
- inhibition rate on the stem growth of barnyard grass seeds (0.625 mmol/L): 11.6%
- inhibition rate on the root growth of barnyard grass seeds (1.25 mmol/L): 61.5%
- inhibition rate on the stem growth of barnyard grass seeds (1.25 mmol/L): 30.3%
- inhibition rate on the root growth of barnyard grass seeds (2.5 mmol/L): 84.4%
- inhibition rate on the stem growth of barnyard grass seeds (2.5 mmol/L): 50.5%
- inhibition rate on the root growth of barnyard grass seeds (5 mmol/L): 90.7%
- inhibition rate on the stem growth of barnyard grass seeds (5 mmol/L): 71.8%

SMILES: Cc1ccc(CNC(C)(C)[C@H]2CC[C@@](C)(NCc3ccc(C)o3)CC2)o1 [cis-p-menthane-1,8-bis-(5-methylfuran-2-methyl)amine]
- inhibition rate on the root growth of barnyard grass seeds (0.15625 mmol/L): 23.1%
- inhibition rate on the stem growth of barnyard grass seeds (0.15625 mmol/L): 7.2%
- inhibition rate on the root growth of barnyard grass seeds (0.3125 mmol/L): 41.3%
- inhibition rate on the stem growth of barnyard grass seeds (0.3125 mmol/L): 12.5%
- inhibition rate on the root growth of barnyard grass seeds (0.625 mmol/L): 24.7%
- inhibition rate on the stem growth of barnyard grass seeds (0.625 mmol/L): 6.8%
- inhibition rate on the root growth of barnyard grass seeds (1.25 mmol/L): 50.3%
- inhibition rate on the stem growth of barnyard grass seeds (1.25 mmol/L): 17.1%
- inhibition rate on the root growth of barnyard grass seeds (2.5 mmol/L): 64.4%
- inhibition rate on the stem growth of barnyard grass seeds (2.5 mmol/L): 36.5%
- inhibition rate on the root growth of barnyard grass seeds (5 mmol/L): 95.5%
- inhibition rate on the stem growth of barnyard grass seeds (5 mmol/L): 79.8%
